# Measured values as given in patent US10466253B2, “Molecular flux rates through critical pathways measured by stable isotope labeling in vivo, as biomarkers of drug action and disease activity” (The Regents of the University of California, priority 2004, dated 2019).
# “Also recorded” adds a separate entry of the source. Like-named read-outs stand apart in the source and are kept apart here.
# Key:
# [1] = system: liver cells; assay: Liver cell proliferation under carbon tetrachloride treatment (2H2O labeling); format: in vivo, Swiss Webster mice; settings: IP injections over 7 days, increasing doses, concurrent 2H2O
# Experimental: FIG. 13 depicts in vivo dose response of liver cell proliferation over 7 days of carbon tetrachloride treatment. Swiss Webster mice were given IP injections of CCl4 over 7 days concurrent with ^2H2O.
# Mice are given CCl4 i.p. twice weekly for up to 4 weeks, and continuous oral ^2H2O is given throughout, following an i.p. bolus of ^2H2O. Livers are perfused in situ with saline to minimize blood cell contamination. Livers are homogenized and DNA from 5-mg aliquots is analyzed for ^2H incorporation by gas chromatography/mass spectrometry analysis, after isolation and hydrolysis of genomic DNA, as described in Example 1, supra. Livers are collected 4 days after the last dose of CCl4. The cell proliferation rate can then be calculated from the enrichment in the DNA of the target cell compared to measured body water enrichment or to a reference cell type which is fully replaced.
# DNA is extracted from a liver sample, either by biopsy or liver homogenate. Liver cell proliferation can be determined on a sample a small as 2 mg (400,000 cells). The use of total liver, rather than isolated hepatocytes, allows for efficient scale-up and the sample processing can be adapted to a 96-well automated system for extremely high throughput. Total liver cell proliferation will be compared to the measured proliferation of isolated hepatocytes, and non-parenchymal cells for validation. […]
# [2] = system: liver collagen synthesis; assay: Liver collagen synthesis in CCl4-induced liver fibrosis; settings: for rate of liver collagen synthesis in CCl4-treated mice: CCl4-induced liver fibrosis
# [3] = system: SW 1753 cells; assay: DNA methylation in cultured tumor cells (2H3-methyl methionine labeling, GC-MS of methylcytosine); format: cell-based; settings: for inhibition at 0.25 µM: read-out: inhibition of methylation (reduction)
# [4] = system: microglia; assay: Microglial proliferation assay of neuroinflammation (2H2O labeling, FACS-isolated microglia); format: in vivo, mice; settings: LPS i.p. (1 and 4 mg/kg every other day in FIG. 14); vs control; p<0.05 / p<0.01 ANOVA/Tukey
# Experimental: FIG. 14 depicts microglial response to the neuroinflammatory toxin lipopolysacharride (LPS). LPS is administered every other day to mice intraperitoneally at the two doses indicated (1 and 4 mg/kg body weight). ^2H2O was administered concurrently. Some animals were harvested at each of the indicated time points, and microglia were isolated and analyzed for deuterium incorporation. […] Error bars indicate standard deviation.
# FIG. 15 depicts the effects of two anti-inflammatory chemotherapeutic agents (dexamethasone and minocycline) on microglial proliferation. Mice were given ^2H2O and either intraperitoneal lipopolysaccharide (LPS) to induce neuroinflammation, or a vehicle (control). Mice given LPS were treated with either a vehicle or dexamethasone or minocycline. Microglia were then isolated and analyzed for deuterium incorporation as described herein.
# Mice are labeled with ^2H2O for an appropriate period. Mice are anesthetized and perfused with 10 mL ice cold PBS (trans-cardiac perfusion). Brains are immediately harvested and placed on ice in cold PBS. […]
# The resulting cells are stained with the macrophage specific markers F4/80 and CD11b, fixed in 4% paraformaldehyde (PFA), and then isolated by FACS. […] DNA is extracted from sorted cells, hydrolyzed, derivatized, and analyzed by GC/MS as described in Example 2, supra. […]
# [5] = system: cerebral cortical tissue; assay: Cerebral cortical tissue/cell turnover (2H2O labeling of cortical DNA); settings: high dose of LPS
# [6] = system: hippocampal neuroprogenitor cells; assay: Hippocampal neuroprogenitor cell proliferation (2H2O labeling of DNA, GC/MS); format: in vivo, male 129SvEv mice
# Experimental: FIG. 7 depicts the effects of chronic imipramine treatment on hippocampal neuroprogenitor cell proliferation in male 129SvEv mice. […] Mice received 3 weeks of treatment with imipramine (20 mg/kg/day) in drinking water and were labeled with 10% ^2H2O during the last 3 days of treatment. Data represent mean±SD, n=4 per group.
# FIG. 8 depicts the effects of chronic fluoxetine treatment on hippocampal neuroprogenitor cell proliferation in male 129SvEv mice. […] Mice received 2 weeks of treatment with fluoxetine (10 mg/kg/day) in drinking water and were labeled with 10% ^2H2O during the last week of treatment.
# DNA is then isolated from the tissue or cell of interest using a Qiagen kit (Qiagen, Valencia, Calif.), following the manufacturer's protocol. Isolated DNA, eluted in water, is adjusted to pH 9-10 and hydrolyzed enzymatically; deoxyribose is released selectively from purine (dA/dG) deoxynucleotides and converted to the pentane tetraacetate derivative. Alternatively, a pentafluorobenzyl derivative is prepared by reaction with excess pentafluorobenzyl hydroxylamine under acidic conditions, followed by acetylation with acetic anhydride. Either type of derivative is subsequently extracted with an organic solvent, dried with sodium sulfate, and analyzed by GC/MS as described, supra. […]
# [7] = system: mature neurons; assay: Proliferation of mature neurons (neurogenesis; flow cytometry isolated neurons); format: in vivo; settings: imipramine-treated vs normal adult mice
# Excerpt: FIG. 27 depicts the proliferation of mature neurons in normal and antidepressant (imipramine)-treated adult mice. Neurons were isolated by flow cytometry and analyzed as described in Example 2, infra.
# Animals are sacrificed, brain is removed and the hippocampus is dissected out. […] Different durations of label administration can be used to differentiate between the kinetics of rapidly proliferating cells, such as the progenitor cell population, compared to the slower rate of label incorporation in neuronal cells. In order to assess neurogenesis directly, ^2H2O-labeled […] are sacrificed, the brain is removed, the hippocampus is dissected out and cut into 0.5 mm slices followed by digestion/dissociation with papain and trypsin. The isolated cells are stained for neuronal markers and sorted by flow cytometry. DNA is isolated and labeling is measured as described, supra.
# [8] = system: EMT7 mouse mammary carcinoma cells; assay: In vivo tumor cell proliferation over 5 days of chemotherapy; parameters: species or system female balb/C mice; settings: Gem 125 mg/kg every other day, HU 500 mg/kg daily
# [9] = system: bone marrow cells (total, lymphoid, myeloid, other); assay: Bone marrow cell subset proliferation after hydroxyurea (myelosuppression)
# [10] = system: bone marrow; assay: Bone marrow proliferation in tumor-bearing mice over 5 days of chemotherapy; format: in vivo, female balb/C mice; settings: Gem 125 mg/kg every other day, HU 500 mg/kg daily
# [11] = Tolerability of maintained 2H2O body water enrichment; format: in vivo, humans and experimental animals; settings: 1-10% of total body water labeled, weeks or months; >100 human subjects
# Excerpt: Relatively high body water enrichments of ^2H2O (e.g., 1-10% of the total body water is labeled) may be achieved relatively inexpensively using the techniques of the invention. […] This finding in a large number of human subjects (>100 people) is contrary to previous concerns about vestibular toxicities at high doses of ^2H2O. The Applicant has discovered that as long as rapid changes in body water enrichment are prevented (e.g., by initial administration in small, divided doses), high body water enrichments of ^2H2O can be maintained with no toxicities. For example, the low expense of commercially available ^2H2O allows long-term maintenance of enrichments in the 1-5% range at relatively low expense (e.g., calculations reveal a lower cost for 2 months labeling at 2% ^2H2O enrichment, and thus 7-8% enrichment in the alanine precursor pool, than for 12 hours labeling of ^2H-leucine at 10% free leucine enrichment, and thus 7-8% enrichment in leucine precursor pool for that period).
# [12] = system: endothelial cells from xenograft tumors; assay: Tumor endothelial cell proliferation in xenograft tumors (angiogenesis); format: in vivo, Balb/c Nu-/Nu- mice; settings: two weeks drug treatment; vs vehicle (saline)/untreated group
# Experimental: FIG. 18 depicts proliferation of endothelial cells from xenograft tumors in mice treated with an anti-angiogenic drug (Avastin) or a vehicle (saline). Endothelial cell proliferation is suppressed in animals treated with the drug.
# The kinetics of angiogenesis are measured in liver and tumor xenografts. Balb/c Nu−/Nu− mice are transplanted with human breast tumor cells. After labeling with ^2H2O, individual animals are sacrificed, and both tumor tissue and liver tissue are harvested from the same animal. The tissue is then digested with collagenase (1 mg/mL) into a single cell suspension. Endothelial cells are enriched by Percoll gradient centrifugation, followed by FACS (sorting on isolection and CD31 positive cells). The proliferation rate of tumor endothelial cells, as well as liver endothelial cells is then measured by purifying, processing, derivatizing, and analyzing the DNA from the isolated endothelial cells, as described in example 2, supra.
# [13] = single dose 500 mg/kg i.p., 8% 2H2O for subsequent 24 hours, vs vehicle
molecule,measurement,setting,value
"ClC(Cl)(Cl)Cl [CCl4, carbon tetrachloride]",total liver cell turnover (proliferation of liver cells),[1],increased proliferation of liver cells
same,collagen synthesis in mouse liver,[2]; fibrotic agent alone,increases collagen synthesis
"Nc1ncn([C@@H]2O[C@H](CO)[C@@H](O)[C@H]2O)c(=O)n1 [azacytidine, azacitidine]",inhibition at 0.25 µM,"[3]; 250 nM, SW 1753 cells, DMEM 10% FBS with 2H3-methyl methionine",< 10%
same,fraction of methylcytosine that is new,"[3]; 24-hour labeling period, 125, 250, 500 nM",suppressed
lipopolysaccharide [LPS],microglial proliferation,[4],increased proliferative response; also recorded: increased proliferation; also recorded: statistically significant and dose-dependent increase
same,cortical tissue turnover,[5],affected cortical tissue turnover; also recorded: increased cortical cell turnover
CN(C)CCCN1c2ccccc2CCc2ccccc21 [imipramine],hippocampal neuroprogenitor cell proliferation,"[6]; imipramine 20 mg/kg/day in drinking water, 3 weeks, 10% 2H2O during last 3 days, vs vehicle",increases progenitor cell proliferation; also recorded: significant increase
same,rate of mature neuron formation,[7],increased formation of mature neurons
same,rate of mature neuron formation,[7]; listed as Imipramine,increased the rate of mature neuron formation
"Nc1ncn([C@H]2C[C@H](O)[C@@H](CO)O2)c(=O)n1 [Decitabine, decitabine]",inhibition at 0.25 µM,[3],70%
NC(=O)NO [hydroxyurea],tumor cell proliferation,[8],reduced
same,tumor cell proliferation,[8]; listed as HU,suppressed
same,"bone marrow proliferation across subsets (TBM, lymphoid, myeloid, other)",[9]; in three cases (indicated by **),suppressed bone marrow proliferation
same,proliferation of lymphoid bone marrow cells,[9]; [13],statistically significant suppressive effect
same,proliferation of other bone marrow cells,[9]; [13],statistically significant suppressive effect
same,proliferation of total bone marrow (TBM),[9]; [13],statistically significant suppressive effect
same,bone marrow proliferation,[10],suppressed
[2H]O[2H] [^2H2O],toxicity of maintained body water enrichment,[11],without any evidence of toxicity
"Nc1ccn([C@@H]2O[C@H](CO)[C@@H](O)C2(F)F)c(=O)n1 [Gem, gemcitabine]",tumor cell proliferation,[8],suppressed
same,tumor cell proliferation,[8]; listed as gemcitabine,reduced
same,bone marrow proliferation,[10],suppressed
"Avastin: Avastin (Genentech, CA), a known anti-angiogenesis drug",tumor endothelial cell proliferation rate,[12],suppressed; also recorded: significantly lower proliferation rate
CNCCC(Oc1ccc(C(F)(F)F)cc1)c1ccccc1 (stereo not shown) [fluoxetine],hippocampal neuroprogenitor cell proliferation,"[6]; fluoxetine 10 mg/kg/day in drinking water, 2 weeks, 10% 2H2O during last week, p<0.05 vs vehicle",increases progenitor cell proliferation; also recorded: significant increase
"Interferon-gamma: anti-fibrotic agent (protein, UniProt P01579 24-161, looked up) Interferon gamma: QDPYVKEAENLKKYFNAGHSDVADNGTLFLGILKNWKEESDRKIMQSQIVSFYFKLFKNFKDDQSIQKSVETIKEDMNVKFFNSNKKKRDDFEKLTNYSVTDLNVQRKAIHELIQVMAELSPAAKTGKRKRSQMLFRG",rate of liver collagen synthesis in CCl4-treated mice,[2],reduce the rate of collagen synthesis
same,rate of liver collagen synthesis in CCl4-treated mice,[2]; listed as interferon-gamma,suppressed
